According to the supplement of paper PMC10307832:

Legend:
Experiment in all cases: relative viability (nuclei count vs DMSO), 5 days (fraction); higher = more cells survive
TGX 221 + Foretinib = compound: CC1=CN2C(=O)C=C(N=C2C(=C1)C(C)NC3=CC=CC=C3)N4CCOCC4 [TGX 221] + COc1cc2c(Oc3ccc(NC(=O)C4(C(=O)Nc5ccc(F)cc5)CC4)cc3F)ccnc2cc1OCCCN1CCOCC1 [Foretinib] (partner 0.25 µM)
Summary of the method: (§1)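 Cells from lung cancer lines were seeded into 1536-well plates and, one day later, dosed by pin tool. Treatments were either a single drug or a fixed dose of an anchor drug with five library-drug doses (not always all listed) in √10 steps. After 5 days, nuclei were stained in a one-step fixation (final 0.05% Triton X-100, 1% formaldehyde, 1 ug/ml Hoechst) and counted on 4× images, and relative viability is the treated-to-vehicle nuclei ratio, as the median of duplicate plates.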

TGX 221 + Navitoclax = compound: CC1=CN2C(=O)C=C(N=C2C(=C1)C(C)NC3=CC=CC=C3)N4CCOCC4 [TGX 221] + CC1(C)CCC(c2ccc(Cl)cc2)=C(CN2CCN(c3ccc(C(=O)NS(=O)(=O)c4ccc(N[C@H](CCN5CCOCC5)CSc5ccccc5)c(S(=O)(=O)C(F)(F)F)c4)cc3)CC2)C1 [Navitoclax] (partner 0.5 µM)
Summary of the method: as §1

TGX 221 + Alpelisib = compound: CC1=CN2C(=O)C=C(N=C2C(=C1)C(C)NC3=CC=CC=C3)N4CCOCC4 [TGX 221] + Cc1nc(NC(=O)N2CCC[C@H]2C(N)=O)sc1-c1ccnc(C(C)(C)C(F)(F)F)c1 [Alpelisib] (partner 2 µM)
Summary of the method: as §1

[1] = compound: O=C(CCCCCCNC(=O)c1cnc(N(c2ccccc2)c2ccccc2)nc1)NO [Ricolinostat] + CC(=O)Nc1cccc(-n2c(=O)n(C3CC3)c(=O)c3c(Nc4ccc(I)cc4F)n(C)c(=O)c(C)c32)c1 [Trametinib] (partner 0.02 µM)
Summary of the method: as §1

Row | Cell Line | relative viability (TGX 221 + Foretinib; first compound 0.08 µM) | relative viability (TGX 221 + Foretinib; first compound 0.253 µM) | relative viability (TGX 221 + Foretinib; first compound 0.8 µM) | relative viability (TGX 221 + Foretinib; first compound 2.53 µM) | relative viability (TGX 221 + Foretinib; first compound 8 µM) | relative viability (TGX 221 + Navitoclax; first compound 0.08 µM) | relative viability (TGX 221 + Navitoclax; first compound 0.253 µM) | relative viability (TGX 221 + Navitoclax; first compound 0.8 µM) | relative viability (TGX 221 + Navitoclax; first compound 2.53 µM) | relative viability (TGX 221 + Navitoclax; first compound 8 µM) | relative viability (TGX 221 + Alpelisib; first compound 0.08 µM) | relative viability (TGX 221 + Alpelisib; first compound 0.253 µM) | relative viability (TGX 221 + Alpelisib; first compound 0.8 µM) | relative viability (TGX 221 + Alpelisib; first compound 2.53 µM) | relative viability (TGX 221 + Alpelisib; first compound 8 µM) | relative viability ([1]; first compound 0.08 µM) | relative viability ([1]; first compound 0.253 µM) | relative viability ([1]; first compound 0.8 µM) | relative viability ([1]; first compound 2.53 µM)
1 | NCI-H3122 | 0.967 | 0.931 | 0.957 | 0.949 | 1.01 | 1.09 | 1.03 | 1.02 | 1.09 | 1.01 | 0.758 | 0.735 | 0.717 | 0.681 | 0.787 | 0.221 | 0.256 | 0.248 | 0.313
2 | HCC-15 | 0.993 | 0.964 | 1 | 0.973 | 1 | 0.745 | 0.642 | 0.579 | 0.67 | 0.642 | 0.893 | 0.788 | 0.958 | 0.831 | 0.776 | 0.352 | 0.397 | 0.379 | 0.333
3 | NCI-H1623 | 0.815 | 0.858 | 0.827 | 0.826 | 0.77 |  |  |  |  |  |  |  |  |  |  |  |  |  | 
4 | NCI-H2342 | 1.03 | 1.02 | 1.03 | 0.903 | 0.985 |  |  |  |  |  |  |  |  |  |  | 0.636 | 0.807 | 0.831 | 0.78
5 | NCI-H1650 | 0.953 | 0.751 | 1.05 | 0.922 | 0.639 | 1.23 | 1.14 | 1.27 | 1.04 | 0.456 |  |  |  |  |  | 0.791 | 0.583 | 0.525 | 0.43
6 | NCI-H1563 | 0.855 | 0.875 | 0.936 | 0.836 | 0.68 |  |  |  |  |  | 0.834 | 0.777 | 0.658 | 0.607 | 0.594 |  |  |  | 
7 | LCLC-103H | 0.698 | 0.761 | 0.883 | 0.724 | 0.619 |  |  |  |  |  | 1.03 | 0.896 | 0.776 | 0.743 | 0.654 | 0.632 | 0.599 | 0.685 | 0.77
8 | NCI-H1299 | 1.12 | 1.06 | 1.1 | 1.13 | 1.07 | 1.01 | 1.03 | 1.04 | 1.07 | 0.985 | 0.991 | 1.07 | 1.12 | 1.14 | 1.17 |  |  |  | 
9 | NCI-H1648 |  |  |  |  |  |  |  |  |  |  |  |  |  |  |  |  | 0.512 | 0.489 | 0.519
10 | EBC-1 | 0.0971 | 0.106 | 0.102 | 0.1 | 0.11 | 0.43 | 0.408 | 0.428 | 0.277 | 0.258 | 0.738 | 0.526 | 0.426 | 0.321 | 0.32 |  |  |  | 
11 | ABC-1 | 1.1 | 0.806 | 0.817 | 1.1 | 0.835 |  |  |  |  |  | 1.03 | 0.858 | 0.996 | 0.99 | 0.838 |  |  |  | 
12 | ChaGo-K-1 | 0.989 | 0.871 | 0.926 | 0.827 | 0.876 | 0.957 | 1.02 | 0.987 | 0.737 | 1.36 |  |  |  |  |  | 0.894 | 0.865 | 0.848 | 0.802
13 | NCI-H522 |  |  |  |  |  |  |  |  |  |  |  |  |  |  |  | 0.742 | 0.711 | 0.769 | 0.832
14 | Calu-6 | 0.888 | 0.8 | 0.88 | 0.923 | 0.815 | 0.853 | 0.813 | 0.872 | 0.753 | 0.733 | 0.986 | 0.8 | 0.948 | 0.917 | 0.883 |  |  |  | 
15 | NCI-H358 | 0.702 | 0.664 | 0.711 | 0.597 | 0.587 |  |  |  |  |  | 0.723 | 0.75 | 0.828 | 0.85 | 0.726 | 0.125 | 0.135 | 0.173 | 0.176
16 | NCI-H1703 | 0.328 | 0.275 | 0.335 | 0.317 | 0.337 | 1.05 | 0.822 | 0.969 | 0.97 | 0.633 | 0.269 | 0.222 | 0.176 | 0.267 | 0.235 |  |  |  | 
17 | HCC-44 |  |  |  |  |  | 0.992 | 0.981 | 0.918 | 0.837 | 0.732 | 0.784 | 0.667 | 0.632 | 0.597 | 0.473 | 1.11 | 1.02 | 1.02 | 1.04
18 | NCI-H650 | 0.941 | 0.944 | 0.904 | 0.964 | 0.976 |  |  |  |  |  | 1.23 | 1.02 | 1.13 | 0.912 | 0.791 | 0.853 | 0.908 | 0.909 | 0.874
19 | A549 | 1.05 | 0.917 | 0.997 | 1.06 | 0.801 | 1.29 | 1.17 | 1.18 | 1.18 | 1.11 | 0.63 | 0.52 | 0.542 | 0.377 | 0.28 |  |  |  | 
20 | NCI-H661 | 1.03 | 0.987 | 1.02 | 1.09 | 0.82 |  |  |  |  |  | 0.45 | 0.52 | 0.201 | 0.559 | 0.516 | 0.498 | 0.569 | 0.592 | 0.568
21 | SW 900 | 0.682 | 0.651 | 0.788 | 0.546 | 0.726 |  |  |  |  |  |  |  |  |  |  | 0.659 | 0.905 | 0.954 | 0.609
22 | IA-LM | 1.18 | 1.04 | 1.08 | 1.22 | 1.11 | 0.722 | 0.707 | 1.02 | 0.849 | 1.02 | 0.753 | 0.818 | 0.792 | 0.614 | 0.589 |  |  |  | 
